Patent US7786152B2, “Compound” (priority 2002, dated 2010)

Key:
11 β-HSD type 2 = target: T1, 11 β-HSD type 2 (Rattus norvegicus, UniProt P50233); test: 11 β-HSD type 2 inhibition, rat kidney homogenate, conversion F to E (radiometric TLC); type: biochemical; conditions: read-out: % inhibition of 11β HSD2 @ 10 μM, typical sd ± 5%, means n=2
T1 construct: Both the kidneys and livers were homogenised on ice in PBS-sucrose buffer; tissue Harlan Olac (rats); host or cells: Wistar rat kidney homogenate supernatant
T1 sequence (P50233 1-400): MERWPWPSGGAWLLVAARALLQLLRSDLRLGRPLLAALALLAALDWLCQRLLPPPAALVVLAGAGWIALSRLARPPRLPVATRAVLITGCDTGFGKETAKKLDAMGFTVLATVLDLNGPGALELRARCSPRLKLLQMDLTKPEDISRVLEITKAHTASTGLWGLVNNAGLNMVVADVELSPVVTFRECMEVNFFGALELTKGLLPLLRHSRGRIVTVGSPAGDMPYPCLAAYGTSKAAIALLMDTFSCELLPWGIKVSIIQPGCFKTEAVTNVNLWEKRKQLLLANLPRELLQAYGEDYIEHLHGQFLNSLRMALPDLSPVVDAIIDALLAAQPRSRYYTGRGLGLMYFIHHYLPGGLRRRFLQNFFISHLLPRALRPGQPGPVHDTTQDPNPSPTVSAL
Protocol: (§1) Enzymes—Rat livers and rat kidneys were obtained from normal Wistar rats (Harlan Olac, Bicester, Oxon, UK). Both the kidneys and livers were homogenised on ice in PBS-sucrose buffer (1 g/10 ml) using an Ultra-Turrax. After the livers and kidneys were homogenised the homogenate was centrifuged for five minutes at 4000 rpm. The supernatant obtained was removed and stored in glass vials at −20° C. The amount of protein per μl of rat liver and kidney cytosol was determined using the Bradford method.
The same procedure was used for the 11 β-HSD type 2 assay, the conversion F to E, to determine the amount of rat kidney to be used and the incubation time. Except this time the substrate solution contained ^3H—F and unlabelled F and the recovery contained ^14C-E and unlabelled E and cortisone has a Rf value of 0.65 on the TLC-plate.
(§2) In these assays the influence of different inhibitors on the 11 β-HSD activity both in reductive (type 1) and oxidative (type 2) directions were assessed. In the reductive direction E is the substrate and F the product and visa versa in the case of oxidation. The method described here is for the oxidative direction.
The substrate solution contained about 50,000 cpm/ml ^3H—F in PBS-sucrose and 0.5 μM F. 1 ml of the substrate solution was added to each tube, the inhibitors were also added, at a 10 μM concentration, to each tube except to the “control” and “blank” tubes. 150 μL was added to all tubes except to the blanks, this was done to correct for the amount of ^3H—F spontaneously formed. The tubes were incubated for 60 minutes in a mechanically shaken water bath at 37° C. The amount of kidney liver homogenate and incubation time used resulted from the enzyme- and time-dependency assay. After incubation 50 μL of recovery was added to correct for the losses made in the next steps, containing 5000 cpm/50 μL of ^14C-E and 50 μg/50 μL of unlabelled E (to visualise the spot on the TLC-plate). The aqueous mixture was then extracted with 4 ml of ether (2×30 sec cycle, vortex mix). After freezing the aqueous phase, the ether (upper) layer was decanted into smaller tubes and evaporated at 45° C. until completely dry. The residue was then re-dissolved in 6 drops of ether and transferred to a TLC-plate. The TLC-plate was developed in chloroform:methanol (9:1 v/v) solvent system, the TLC-plate ran for about 90 minutes until the solvent front had moved about 18 cm. The position of the product E was visualised under UV-light and cut out from the TLC-plate and put into scintillation vials. Radioactivity was eluted over 5 minutes with 0.5 ml methanol. 0.5 ml of PBS-sucrose and 10 ml of Ecoscint were then added and vortex mixed before counting in the scintillation counter. Before counting the samples, two total activity vials were prepared. These contained 0.5 ml of the substrate solution, 50 μL of the recovery, 0.5 ml of methanol and 10 ml of Ecoscint. These two total activity vials were needed to determine the amount of ^14C-E and ^3H—F added in the beginning to make the calculations.
To look at the percentage of inhibition four different concentrations, 1, 5, 10 and 20 μM, were used. The method for both the rat liver, type 1 the reductive, and rat kidney, type 2 the oxidative, stay the same throughout the entire experiment.
In this experiment the amount of rat liver homogenate and rat kidney homogenate added to each tube and the incubation time was determined. […] After drawing the graphs the optimal amount of rat liver cytosol and rat kidney cytosol and both their incubation times were selected. One important rule when selecting both variables, to select an amount of rat liver and rat kidney and incubation time on a linear part of the graph. This is done to avoid fluctuations in enzyme activity. The amount of rat liver cytosol selected was 25 μL and 90 minutes of incubation time, the amount of rat kidney cytosol selected was 150 μL and 60 minutes of incubation time. […]

11 β-HSD type 1 = target: T2, 11 β-HSD type 1 (Rattus norvegicus, UniProt P16232); test: 11 β-HSD type 1 inhibition, rat liver homogenate, conversion E to F (radiometric TLC); type: biochemical; conditions: read-out: % inhibition of 11β HSD1 @ 10 μM, 10 μM, typical sd ± 5%, means n=2
T2 construct: Both the kidneys and livers were homogenised on ice in PBS-sucrose buffer; tissue Harlan Olac (rats); host or cells: Wistar rat liver homogenate supernatant
Protocol: as §1
11 β-HSD type 1 is the enzyme responsible for the conversion E to F and this type of enzyme is present in rat liver. The substrate solution used in this assay contained 70,000 cpm/ml ^3H-E in PBS-sucrose and 0.5 μM of unlabelled E and co-factor NADPH (9 mg/10 ml of substrate solution). 1 ml of the substrate solution and the different amounts of rat liver homogenate was added to all tubes.
The amount of rat liver homogenate needed for an assay was determined by incubating the substrate solution with 25, 50, 100 and 150 μl for 30, 60, 90 and 120 minutes at 37° C. in a water bath with the tubes being mechanically shaken. After the incubation 50 μL of recovery solution was added, containing about 8,000 cpm/50 μL of ^14C—F and 50 μg/50 μL of unlabelled F for visualising the spot on the TLC-plate, to correct for the losses made in the next two steps. F was then extracted from the aqueous phase with 4 ml of ether (2×30 sec cycle, vortex mix). The aqueous phase was then frozen using dry-ice and the organic layer was decanted and poured into smaller tubes and evaporated. 6 drops of ether were then added to the small tubes to re-dissolve the residue which was transferred to an aluminium thin layer chromatography plate (TLC-plate). The TLC-plate was developed in a TLC tank under saturated conditions. The solvent system used was chloroform:methanol 9:1 (v/v). The F spots on the TLC-plate were visualised under UV-light and cut out from the TLC-plate (Rf=0.45). The spots from the TLC-plate were then put into scintillation vials and 0.5 ml of methanol was added to all vials to elute the radioactivity from the TLC-plate for 5 minutes. 10 ml of Ecoscint was added to the scintillation vials and they were put into the scintillation counter to count amount of product formed.
as §2
The substrate solution contained about 50,000 cpm/ml ^3H—F in PBS-sucrose and 0.5 μM F. 1 ml of the substrate solution was added to each tube, the inhibitors were also added, at a 10 μM concentration, to each tube except to the “control” and “blank” tubes. 150 μL was added to all tubes except to the blanks, this was done to correct for the amount of ^3H—F spontaneously formed. The tubes were incubated for 60 minutes in a mechanically shaken water bath at 37° C. The amount of kidney liver homogenate and incubation time used resulted from the enzyme- and time-dependency assay. After incubation 50 μL of recovery was added to correct for the losses made in the next steps, containing 5000 cpm/50 μL of ^14C-E and 50 μg/50 μL of unlabelled E (to visualise the spot on the TLC-plate). The aqueous mixture was then extracted with 4 ml of ether (2×30 sec cycle, vortex mix). After freezing the aqueous phase, the ether (upper) layer was decanted into smaller tubes and evaporated at 45° C. until completely dry. The residue was then re-dissolved in 6 drops of ether and transferred to a TLC-plate. The TLC-plate was developed in chloroform:methanol (9:1 v/v) solvent system, the TLC-plate ran for about 90 minutes until the solvent front had moved about 18 cm. The position of the product E was visualised under UV-light and cut out from the TLC-plate and put into scintillation vials. […]

T2 sequence (P16232 whole entry): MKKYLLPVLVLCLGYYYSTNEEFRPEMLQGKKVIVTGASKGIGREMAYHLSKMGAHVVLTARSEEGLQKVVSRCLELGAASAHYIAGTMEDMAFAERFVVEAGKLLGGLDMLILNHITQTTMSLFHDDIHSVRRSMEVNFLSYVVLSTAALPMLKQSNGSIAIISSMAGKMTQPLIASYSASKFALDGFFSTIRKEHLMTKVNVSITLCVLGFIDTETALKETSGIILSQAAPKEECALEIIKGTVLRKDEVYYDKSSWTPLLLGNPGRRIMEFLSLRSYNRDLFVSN

Row | melting point [°C] | SMILES | inhibition at 10 µM (11 β-HSD type 2) [%] | inhibition at 10 µM (11 β-HSD type 1) [%]
1 | 254 to 256 | Cc1c(Cl)cccc1S(=O)(=O)Nc1ccc2c(c1)nc(C)n2-c1ccccc1 |  | 
2 | 213 to 214.5 | Cc1c(Cl)cccc1S(=O)(=O)Nc1ccc2nc(C)n(CCO)c2c1 |  | 
3 | 245 to 247 | Cc1c(Cl)cccc1S(=O)(=O)Nc1ccc2c(c1)nc(C)n2CCO |  | 
4 |  | Cc1nc2cc(NS(=O)(=O)c3c(C)c(C)cc(C)c3C)ccc2s1 [compound 706] | 7 | 29
5 |  | COc1ccc(S(=O)(=O)Nc2ccc3sc(C)nc3c2)cc1OC [compound 707] | 11 | 21
6 |  | CC(=O)Nc1ccc(S(=O)(=O)Nc2ccc3sc(C)nc3c2)cc1 [compound 711] | 6 | 37
7 |  | Cc1nc2cc(NS(=O)(=O)c3c(F)c(F)c(F)c(F)c3F)ccc2s1 [compound 712] | 3 | 24
8 |  | Cc1nc2cc(NS(=O)(=O)c3c(C)c(C)c4c(c3C)CCC(C)(C)O4)ccc2s1 [compound 713] | 3 | 26
9 |  | CC(=O)c1ccccc1S(=O)(=O)N(c1ccc2sc(C)nc2c1)S(=O)(=O)c1ccccc1C(C)=O [compound 730] | 9 | 32
10 |  | Cc1nc2cc(N(S(=O)(=O)c3ccccc3C#N)S(=O)(=O)c3ccccc3C#N)ccc2s1 [compound 731] | 12 | 45
11 |  | Cc1c(Cl)cccc1S(=O)(=O)Nc1ccc2ncsc2c1 [compound 750] | 10 | 4
12 |  | CCOC(=O)CSc1nc2ccc(NS(=O)(=O)c3cccc(Cl)c3C)cc2s1 [compound 752] | 1 | 5
13 |  | Cc1c(Cl)cccc1S(=O)(=O)Nc1ccc2[nH]c(=O)sc2c1 [compound 753] | 2 | 8
14 |  | COCCSc1nc2ccc(NS(=O)(=O)c3cccc(Cl)c3C)cc2s1 [compound 754] | 6 | 20
15 |  | CCN(CC)C(=O)CSc1nc2ccc(NS(=O)(=O)c3cccc(Cl)c3C)cc2s1 [compound 755] | 8 | 21

Row | SMILES | melting point [°C] | inhibition at 10 µM (11 β-HSD type 2) [%] | inhibition at 10 µM (11 β-HSD type 1) [%]
16 | Cc1c(Cl)cccc1S(=O)(=O)Nc1ccc2nc(C)n(C)c2c1 | 265 to 266 |  | 
